Assay results from patent US20050282810A1, “Oxindole derivatives” (priority 2000, published 2005).

tested on: not given; assay: not given; settings: not given

Structure (SMILES) | melting point
NC(=O)Cc1ccc(N/C=C2\C(=O)Nc3ccccc32)cc1 [Example 5, 2-(4-{[(Z)-(2-oxo-1,2-dihydro-3H-indol-3-ylidene)methyl]amino}phenyl)acetamide] | > 250 °C

target: T1, TrkA (Homo sapiens, UniProt P04629); assay: TrkA tyrosine kinase substrate phosphorylation assay (Src peptide, 33P-ATP, p81 filter plates); assay type: biochemical; settings: GST-fusion of TrkA intracellular domain, 30 uM ATP, 50 uM Src peptide, RT 120 min
T1 construct: The enzyme is a GST-fusion of the intracellular domain expressed in SF9 cells; GST; host or cells: SF9 insect cells
T1 sequence (P04629 440-796 limits assumed, species assumed): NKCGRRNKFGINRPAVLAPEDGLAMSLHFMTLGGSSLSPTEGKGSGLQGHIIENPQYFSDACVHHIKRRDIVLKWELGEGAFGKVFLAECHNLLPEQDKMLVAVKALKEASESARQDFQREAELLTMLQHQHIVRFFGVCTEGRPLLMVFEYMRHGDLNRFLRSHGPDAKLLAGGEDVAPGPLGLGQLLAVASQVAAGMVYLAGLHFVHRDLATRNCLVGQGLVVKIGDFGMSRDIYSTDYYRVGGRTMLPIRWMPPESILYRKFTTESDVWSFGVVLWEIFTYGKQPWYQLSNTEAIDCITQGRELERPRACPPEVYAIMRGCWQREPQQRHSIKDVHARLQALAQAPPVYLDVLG
Procedure: The compounds of the present invention have valuable pharmacologic properties. Different compounds from this class are particularly effective at inhibiting the trkA kinase enzyme at concentrations that range from 0.0001 to 1 μM and additionally show specificity relative to other kinases. Substrate phosphorylation assays were carried out as follows:
Screening format: Tyrosine kinase activity is being measured using a synthetic peptide substrate. The enzyme is a GST-fusion of the intracellular domain expressed in SF9 cells. The enzyme is expressed and purified by Regeneron. The enzyme is preincubated with cold ATP and Mg to allow autophosphorylation prior to running the screen. This increases the initial rate of catalysis approximately 3 fold. The assay is performed in 96 well microtitre plates, and reaction products are detected following filtration through millipore p81 phosphocellulose plates.

Structure (SMILES) | IC50
O=C1Nc2ccccc2/C1=C/Nc1ccc2[nH]c(=O)[nH]c2c1 [Example 1, 5-{[(Z)-(2-oxo-1,2-dihydro-3H-indol-3-ylidene)methyl]amino}-1,3-dihydro-2H-benzimidazol-2-one] | < 0.01 µM
O=C1Nc2ccccc2/C1=C/Nc1ccc(-n2cncn2)cc1 [Example 2, (3Z)-3-{[4-(1H-1,2,4-triazol-1-yl)anilino]-methylene}-1,3-dihydro-2H-indol-2-one] | < 0.01 µM
CCC1(c2ccc(N/C=C3\C(=O)Nc4ccccc43)cc2)CCC(=O)NC1=O (stereo not shown) [Example 3, 3-ethyl-3-(4-{[(Z)-(2-oxo-1,2-dihydro-3H-indol-3-ylidene)methyl]amino}phenyl)-2,6-piperidinedione] | < 0.01 µM
Nc1nnc(-c2cccc(N/C=C3\C(=O)Nc4ccc5[nH]nnc5c43)c2)o1 [Example 4, (8Z)-8-{[3-(5-amino-1,3,4-oxadiazol-2-yl)anilino]methylene}-6,8-dihydro[1,2,3]triazolo[4,5-e]indol-7(3H)-one] | < 0.01 µM
NC(=O)Cc1ccc(N/C=C2\C(=O)Nc3ccccc32)cc1 [Example 5, 2-(4-{[(Z)-(2-oxo-1,2-dihydro-3H-indol-3-ylidene)methyl]amino}phenyl)acetamide] | 0.01 to 0.1 µM
O=C1Nc2ccccc2/C1=C/Nc1ccc(-c2nc[nH]n2)cc1 [Example 6, (3Z)-3-{[4-(1H-1,2,4-triazol-3-yl)anilino]methylene}-1,3-dihydro-2H-indol-2-one] | 0.01 to 0.1 µM
